The values that follow come from patent US20240366624A1, “METHODS AND COMPOSITIONS FOR TREATING THROMBOTIC DISEASE” (Washington University, priority 2023, published 2024).

Usually pIC50 stands for −log10 of the IC50, conventionally taken in molar units.

For one assay, the system named is WT mice. Kind of assay: FeCl3-induced carotid arterial thrombosis. Format: in vivo, mouse. How it is done: FIG. […]) is an exemplary embodiment of B12-5 having an antithrombotic effect without prolonging tail bleeding times in mice in accordance with the present disclosure. FIG. […]): Ex vivo effects of B12-5. Wild type (WT; […] One hour later, blood was drawn, followed by isolating platelets. P-selectin exposure (FIG. 19A) and αIIbβ3 integrin activation (FIG. 19B) were assessed in flow cytometry. FIG. 19C: Platelet aggregation was measured after treatment with 0.025 U/mL thrombin. The data represent the mean±SD (n=4). FIG. 19D: The plasma levels of B12-5 were analyzed by liquid chromatography-tandem mass spectrometry (LC-MS/MS) after intravenous injection of the compound (5 μg/g BW) into WT mice and quantified by comparison with a standard curve of B12-5 (mean±SD, n=3). FIG. 19E and FIG. 19F: After laser-induced cremaster arteriolar injury, intravital microscopy was conducted with WT mice pretreated with intravenous injection of saline, eptifibatide (5 μg/g BW), vehicle, or B12-5 (5 μg/g BW). The median integrated fluorescence intensities of anti-CD42c (F platelet) and anti-fibrin (F fibrin) antibodies (n=37-42 arterioles in 6 mice per group). Quantification of the antibody signal at a different time point after laser injury. FIG. 19G: Comparison of B12-5 (5 μg/g BW) with eptifibatide (5 μg/g BW) and their respective controls in inhibiting FeCl3-induced carotid artery thrombosis in WT mice. FIG. 19H and FIG. 19I: WT mice were treated with intravenous injection of vehicle control, eptifibatide (5 μg/g BW), or B12-5 (5 μg/g BW). Thirty minutes later, tail bleeding times and Hb contents were measured after amputation of the tail tip. […] Twenty-three hours later, neurological deficits were assessed by the Bederson score and grip test, and infarct volume was measured as described in Methods. […] Twenty-three hours later, the neurological deficit and infarct volume were measured as described above. […] P values determined by unpaired Student t test (FIG. […]), FIG. 19K, and FIG. 19O) or Mann-Whitney U test (FIG. 19(E-1), FIG. 19L, FIG. 19M, FIG. 19P, and FIG. 19Q). […]

In assay [1] the target is T1, MAO-A (monoamine oxidase A) (Homo sapiens, UniProt P21397).
T1 sequence (P21397 1-527): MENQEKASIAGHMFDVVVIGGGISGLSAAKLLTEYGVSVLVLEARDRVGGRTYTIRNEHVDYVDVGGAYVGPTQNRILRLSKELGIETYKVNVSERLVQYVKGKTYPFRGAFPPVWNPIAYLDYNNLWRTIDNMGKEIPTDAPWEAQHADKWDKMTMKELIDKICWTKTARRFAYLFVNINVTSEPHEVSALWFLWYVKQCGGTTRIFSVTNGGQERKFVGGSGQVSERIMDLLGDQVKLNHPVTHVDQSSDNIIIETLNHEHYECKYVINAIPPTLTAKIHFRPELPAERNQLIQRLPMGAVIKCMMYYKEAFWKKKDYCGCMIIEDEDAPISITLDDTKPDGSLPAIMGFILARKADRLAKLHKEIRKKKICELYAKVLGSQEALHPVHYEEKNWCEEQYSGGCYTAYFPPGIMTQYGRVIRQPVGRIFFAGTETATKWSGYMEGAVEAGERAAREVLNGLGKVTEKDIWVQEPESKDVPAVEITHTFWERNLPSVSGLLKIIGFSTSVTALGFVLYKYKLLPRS
Description: MAO-A activity assay. Format: biochemical.

Assay [2] has as its target T1, MAO-A (monoamine oxidase A). The conditions noted are these: from studies; cited from earlier work.

pIC50: −log10 of the molar value.

With `O=C(CSc1nc(O)cc(O)n1)N1c2ccccc2Sc2ccccc21` [B12-5], in the assay on WT mice (5 μg/g BW, vs vehicle control), the time to occlusion entry was “significantly prolonged”. Further, in the assay on WT mice (iv 5 microg/g mouse), the platelet thrombus formation entry is “significantly reduced”. Also, the “effect on MAO-A activity” value in assay [1] (10 μM) was “without affecting”. The “inhibition of MAO-A activity” value in assay [1] (30 μM) is on record as 30%. For the same compound, the “MAO-A inhibition at 100 μM (%)” value in assay [1] (100 μM) is on record as 50.7 ± 9%.
Take `O=C(O)c1cc(N2N=C(C(F)(F)F)/C(=C/c3ccc(-c4ccccc4)o3)C2=O)ccc1Cl` [EN460]: the pIC50 in assay [2] is 5.10.
